Measured values: PubChem BioAssay (NCI)
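All cell lines were grown in 96-well plates and treated with compound for 48 hours. GI50: concentration for 50% inhibition of growth. TGI: concentration producing complete growth inhibition.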

Key:
Test in all cases: NCI-60 cell line screen, 48 h
[1] = tested on: CAKI-1 renal
[2] = tested on: HCT-116 colon
[3] = tested on: HL-60(TB) leukemia
[4] = tested on: HOP-62 NSCLC
[5] = tested on: IGROV1 ovarian
[6] = tested on: MALME-3M melanoma
[7] = tested on: NCI-H460 lung
[8] = tested on: OVCAR-3 ovarian
[9] = tested on: SF-268 CNS
[10] = tested on: SW-620 colon

## COCC1N=C(c2cc(OC)c(OC)c(OC)c2-c2cc3c(cc2C2OCCCO2)OCO3)O[C@H]1c1ccccc1 (stereo not given in full)
[1]
  TGI: > 100 µM
[2]
  TGI: > 100 µM
[3]
  TGI: > 100 µM
[4]
  TGI: > 100 µM
[5]
  TGI: > 100 µM
[6]
  TGI: > 100 µM
[7]
  TGI: > 100 µM
[8]
  TGI: > 100 µM
[9]
  TGI: > 100 µM
[10]
  TGI: > 100 µM

## COc1ccc2c(c1)c(-c1nc(-c3c[nH]c4ncccc34)cs1)cn2CCCCN1CCOCC1
[1]
  GI50: 1.8 µM
  TGI: 3.79 µM
[2]
  GI50: 1.78 µM
  TGI: 3.37 µM
[3]
  GI50: 1.94 µM
  TGI: 3.85 µM
[4]
  GI50: 1.91 µM
  TGI: 4.08 µM
[5]
  GI50: 2.48 µM
  TGI: 8.28 µM
[6]
  GI50: 1.55 µM
  TGI: 3.34 µM
[7]
  GI50: 1.99 µM
  TGI: 3.9 µM
[8]
  GI50: 1.87 µM
  TGI: 3.74 µM
[9]
  GI50: 1.8 µM
  TGI: 3.93 µM
[10]
  GI50: 1.99 µM
  TGI: 3.92 µM

## CC1CC(c2cccc3c2OCO3)=Nc2ccccc2S1 (stereo not given)
[1]
  TGI: > 100 µM
[3]
  TGI: > 100 µM
[5]
  TGI: > 100 µM
[6]
  TGI: > 100 µM
[7]
  TGI: > 100 µM
[8]
  TGI: > 100 µM
[9]
  TGI: > 100 µM
[10]
  TGI: > 100 µM

## CC1=C(C(=O)Nc2cccc(Cl)c2)C(c2ccc([N+](=O)[O-])cc2)C(C(=O)Nc2cccc(Cl)c2)=C(C)N1
[2]
  TGI: 71.9 µM
[3]
  TGI: 47.4 µM
[4]
  TGI: > 100 µM
[5]
  TGI: > 100 µM
[6]
  TGI: 59.5 µM
[7]
  TGI: 50.4 µM
[8]
  TGI: 85.3 µM
[9]
  TGI: > 100 µM

## O=c1[nH]nc2ccccc2c1Cl
[1]
  TGI: 12 µM
[2]
  TGI: 29.9 µM
[4]
  TGI: 40.7 µM
[5]
  TGI: 28.5 µM
[6]
  TGI: 31 µM
[7]
  TGI: 46.2 µM
[8]
  TGI: 6.21 µM
[9]
  TGI: 41.9 µM
[10]
  TGI: 34.2 µM

## C=C1C(=O)OC2C1CC[C@H](C)C13OC(=O)CC1[C@@]23C (stereo not given in full)
[1]
  TGI: > 100 µM
[2]
  TGI: > 100 µM
[3]
  TGI: > 100 µM
[5]
  TGI: > 100 µM
[6]
  TGI: > 100 µM
[7]
  TGI: > 100 µM
[8]
  TGI: > 100 µM
[9]
  TGI: > 100 µM
[10]
  TGI: > 100 µM

## CN(CC(=O)O)c1ccc(/C=C/c2ccnc3ccccc23)cc1
[1]
  TGI: 66.1 µM
[2]
  TGI: 69.8 µM
[3]
  TGI: 48.2 µM
[4]
  TGI: > 100 µM
[5]
  TGI: 39.4 µM
[7]
  TGI: 67.1 µM
[8]
  TGI: > 100 µM
[9]
  TGI: 61.1 µM
[10]
  TGI: > 100 µM

## O=C(CCCCCCSc1nc(-c2ccccc2)cc(-c2ccccc2)n1)NO
[1]
  GI50: 1.56 µM
  TGI: 6.39 µM
[2]
  GI50: 0.813 µM
  TGI: 10.7 µM
[4]
  GI50: 1.93 µM
  TGI: 8.06 µM
[5]
  GI50: 2.25 µM
  TGI: 10.3 µM
[6]
  GI50: 1.02 µM
  TGI: 8.31 µM
[7]
  GI50: 1.4 µM
  TGI: 11.7 µM
[8]
  GI50: 2.15 µM
  TGI: 9.26 µM
[9]
  GI50: 2.7 µM
  TGI: 7.42 µM
[10]
  GI50: 1.49 µM
  TGI: 12.8 µM

## O=c1c(Sc2c(O)c3ccccc3c3ccccc3c2=O)c(O)c2ccccc2c2ccccc12
[1]
  TGI: > 100 µM
[3]
  TGI: 41.8 µM
[4]
  TGI: 86.4 µM
[5]
  TGI: > 100 µM
[6]
  TGI: > 100 µM
[7]
  TGI: > 100 µM
[8]
  TGI: > 100 µM
[9]
  TGI: 99 µM
[10]
  TGI: > 100 µM
